# Test results as given in patent US8247211B2, “Glycopeptide antibiotics” (American Cyanamid Company, priority 2001, dated 2012).
# Legend:
# [1] = system: Staphylococcus sp.; test: In vitro antibacterial evaluation: minimum inhibitory concentration (MIC), broth dilution method; assay type: cell-based; settings: for MIC Staphylococcus aureus (ATCC 29213): strain ATCC 29213; for MIC Staphylococcus aureus (GC 1131): strain GC 1131; for MIC Staphylococcus aureus (GC 3051): strain GC 3051; for MIC Staphylococcus aureus (GC 3053): strain GC 3053; for MIC Staphylococcus aureus (GC 4541): strain GC 4541; for MIC Staphylococcus aureus (GC 4542): strain GC 4542; for MIC Staphylococcus aureus-SMITH (GC 4543): strain GC 4543; for MIC Staphylococcus aureus (GC 4544): strain GC 4544; for MIC Staphylococcus aureus (GC 4545): strain GC 4545; for MIC Staphylococcus haemolyticus (GC 4546): strain GC 4546; for MIC Coagulase Negative Staphylococcus (GC 4547): strain GC 4547; for MIC Coagulase Negative Staphylococcus (GC 4548): strain GC 4548; for MIC Coagulase Negative Staphylococcus (GC 4549): strain GC 4549; for MIC Coagulase Negative Staphylococcus (GC 4551): strain GC 4551; for MIC Coagulase Negative Staphylococcus (GC 6257): strain GC 6257
# Summary of the method: (§1)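 Susceptibility determined by NCCLS-recommended broth dilution (M7-A2), Muller-Hinton II […]. Concentration span 64-0.06 μg/mL, inoculum 5×10^5 CFU/mL. Isolates include strains resistant to methicillin, penicillin and/or vancomycin.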
# [2] = system: Streptococcus sp.; test: as above; assay type: cell-based; settings: broth dilution, 5×10^5 CFU/mL, 18 hours at 35° C.
# Summary of the method: as §1
# [3] = system: Escherichia coli; test: as above; assay type: cell-based; settings: 5×10^5 CFU/mL, 18 hours at 35° C.
# Summary of the method: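 First, organisms are seeded at 5×10^5 CFU/mL into Muller-Hinton II […]. Next, antibiotic is applied across 64-0.06 μg/mL by broth dilution (NCCLS M7-A2). Finally, the lowest inhibitory concentration is recorded as MIC.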
# [4] = system: Enterococcus sp.; test: as above; assay type: cell-based; settings: broth dilution, 5×10^5 CFU/mL, 18 hours at 35° C.
# Summary of the method: as §1
# [5] = system: Staphylococcus aureus-SMITH (GC 4543); test: Acute lethal infection in mice (ED50); assay type: in vivo; settings: female CD-1 mice, intraperitoneal challenge, intravenous dose 30 min. after infection, 7 day survival ratios
# Method: The therapeutic effects of glycopeptide antibiotics of Formula I are determined against acute lethal infections with S. aureus (strain Smith), a penicillin resistant strain of S. pneumoniae (strain GC 1894), and a vancomycin resistant strain of E. fecalis (strain GC 6189 and GC 2246). Female mice, CD-1 (Charles River Laboratories), 20 +1-2 gm, are challenged by intraperitoneal injection of sufficient bacteria (suspended in Trypticase Soy Broth or hog gastric mucin) to kill non-treated controls within 24-48 hr. Antibacterial agents, contained in 0.2 mL of saline or 5% dextrose solution, are administered intravenously 30 min. after infection. Five mice are treated at each dose level. The 7 day survival ratios from 3 separate tests are pooled for calculation of median effective dose (ED50).
# [6] = broth dilution, 18 hours at 35° C.
smiles,measurement,setting,value
CC(c1ccccc1)C1NC(=O)CNC(=O)C(CO)NC(=O)C(C(O)C2CNC(=N)N2C2OC(CO)C(O)C(O)C2O)NC(=O)C(C(O)C2CNC(=N)N2)NC(=O)C(Cc2ccc(OC3OC(CO)C(OC4OC5COC(CC6CCN(C(=O)OCc7ccccc7)CC6)OC5C(O)C4O)C(O)C3O)cc2)NC1=O (stereo not drawn) [Example 113],MIC Staphylococcus aureus (ATCC 29213),[1],1 µg/mL
same,MIC Staphylococcus aureus (ATCC 29213),[1]; [6],1 µg/mL
same,MIC Staphylococcus aureus (GC 1131),[1],2 µg/mL
same,MIC Staphylococcus aureus (GC 1131),[1]; [6],2 µg/mL
same,MIC Staphylococcus aureus (GC 3051),[1],1 µg/mL
same,MIC Staphylococcus aureus (GC 3051),[1]; [6],1 µg/mL
same,MIC Staphylococcus aureus (GC 3053),[1],1 µg/mL
same,MIC Staphylococcus aureus (GC 3053),[1]; [6],1 µg/mL
same,MIC Staphylococcus aureus (GC 4541),[1],1 µg/mL
same,MIC Staphylococcus aureus (GC 4541),[1]; [6],1 µg/mL
same,MIC Staphylococcus aureus (GC 4542),[1],1 µg/mL
same,MIC Staphylococcus aureus (GC 4542),[1]; [6],1 µg/mL
same,MIC Staphylococcus aureus-SMITH (GC 4543),[1]; 18 hours at 35° C.,1 µg/mL
same,MIC Staphylococcus aureus-SMITH (GC 4543),[1]; [6],1 µg/mL
same,MIC Staphylococcus aureus (GC 4544),[1],2 µg/mL
same,MIC Staphylococcus aureus (GC 4544),[1]; [6],2 µg/mL
same,MIC Staphylococcus aureus (GC 4545),[1],1 µg/mL
same,MIC Staphylococcus aureus (GC 4545),[1]; [6],1 µg/mL
same,MIC Staphylococcus haemolyticus (GC 4546),[1],1 µg/mL
same,MIC Staphylococcus haemolyticus (GC 4546),[1]; [6],1 µg/mL
same,MIC Coagulase Negative Staphylococcus (GC 4547),[1],1 µg/mL
same,MIC Coagulase Negative Staphylococcus (GC 4547),[1]; [6],1 µg/mL
same,MIC Coagulase Negative Staphylococcus (GC 4548),[1],0.5 µg/mL
same,MIC Coagulase Negative Staphylococcus (GC 4548),[1]; [6],0.5 µg/mL
same,MIC Coagulase Negative Staphylococcus (GC 4549),[1],1 µg/mL
same,MIC Coagulase Negative Staphylococcus (GC 4549),[1]; [6],1 µg/mL
same,MIC Coagulase Negative Staphylococcus (GC 4551),[1],1 µg/mL
same,MIC Coagulase Negative Staphylococcus (GC 4551),[1]; [6],1 µg/mL
same,MIC Coagulase Negative Staphylococcus (GC 6257),[1],0.5 µg/mL
same,MIC Coagulase Negative Staphylococcus (GC 6257),[1]; [6],0.5 µg/mL
same,MIC Streptococcus agalactiae (GC 4564),[2],0.12 µg/mL
same,MIC Streptococcus pneumoniae (GC 1894),[2],<0.06 µg/mL
same,MIC Streptococcus pneumoniae (GC 4565),[2],<0.06 µg/mL
same,MIC Streptococcus pneumonine (ATCC 6301),[2],<0.06 µg/mL
same,MIC Streptococcus pyogenes (GC 4563),[2],<0.06 µg/mL
same,MIC Escherichia coli (ATCC 25922),[3],32 µg/mL
same,MIC Escherichia coli (GC 4559),[3],32 µg/mL
same,MIC Escherichia coli (GC 4560),[3],1 µg/mL
same,MIC Enterococccus avium (GC 4558),[4],2 µg/mL
same,MIC Enterococccus faecalis (ATCC 29212),[4],2 µg/mL
same,MIC Enterococccus faecalis (GC 2691),[4],4 µg/mL
same,MIC Enterococccus faecalis (GC 3059),[4],2 µg/mL
same,MIC Enterococccus faecalis (GC 4552),[4],2 µg/mL
same,MIC Enterococccus faecalis (GC 4553),[4],2 µg/mL
same,MIC Enterococccus faecalis (GC 4554),[4],2 µg/mL
same,MIC Enterococccus faecalis (GC 6189),[4],2 µg/mL
same,MIC Enterococccus faecium (GC 2243),[4],2 µg/mL
same,MIC Enterococccus faecium (GC 4556),[4],2 µg/mL
same,MIC Enterococccus faecium (GC 4557),[4],2 µg/mL
same,MIC Enterococcus faecalis (GC 2242),[4],4 µg/mL
same,"median effective dose (ED50), Staphylococcus aureus-SMITH (GC 4543)",[5],0.26 mg/kg
"CC(c1ccccc1)C1NC(=O)CNC(=O)C(CO)NC(=O)C(C(O)C2CNC(=N)N2C2OC(CO)C(O)C(O)C2O)NC(=O)C(C(O)C2CNC(=N)N2)NC(=O)C(Cc2ccc(OC3OC(CO)C(OC4OC5COC(Cc6ccc(Cl)cc6)OC5C(O)C4O)C(O)C3O)cc2)NC1=O (stereo not drawn) [Example 120, Cyclo[glycyl-β-methylphenylalanyl-O-[4-O-[4,6-O-(4-chlorophenethylidene)hexopyranosyl]-hexopyranosyl]tyrosyl-3-(2-iminoimidazolidin-4-yl)seryl-3-(3-hexopyranosyl-2-iminoimidazolidin-4-yl)serylseryl]]",MIC Staphylococcus aureus (ATCC 29213),[1],<0.5 µg/mL
same,MIC Staphylococcus aureus (ATCC 29213),[1]; [6],<0.5 µg/mL
same,MIC Staphylococcus aureus (GC 1131),[1],<0.5 µg/mL
same,MIC Staphylococcus aureus (GC 1131),[1]; [6],<0.5 µg/mL
same,MIC Staphylococcus aureus (GC 3051),[1],<0.5 µg/mL
same,MIC Staphylococcus aureus (GC 3051),[1]; [6],<0.5 µg/mL
same,MIC Staphylococcus aureus (GC 3053),[1],1 µg/mL
same,MIC Staphylococcus aureus (GC 3053),[1]; [6],1 µg/mL
same,MIC Staphylococcus aureus (GC 4541),[1],<0.5 µg/mL
same,MIC Staphylococcus aureus (GC 4541),[1]; [6],<0.5 µg/mL
same,MIC Staphylococcus aureus (GC 4542),[1],<0.5 µg/mL
same,MIC Staphylococcus aureus (GC 4542),[1]; [6],<0.5 µg/mL
same,MIC Staphylococcus aureus-SMITH (GC 4543),[1]; 18 hours at 35° C.,<0.5 µg/mL
same,MIC Staphylococcus aureus-SMITH (GC 4543),[1]; [6],<0.5 µg/mL
same,MIC Staphylococcus aureus (GC 4544),[1],<0.5 µg/mL
same,MIC Staphylococcus aureus (GC 4544),[1]; [6],<0.5 µg/mL
same,MIC Staphylococcus aureus (GC 4545),[1],<0.5 µg/mL
same,MIC Staphylococcus aureus (GC 4545),[1]; [6],<0.5 µg/mL
same,MIC Staphylococcus haemolyticus (GC 4546),[1],<0.5 µg/mL
same,MIC Staphylococcus haemolyticus (GC 4546),[1]; [6],<0.5 µg/mL
same,MIC Coagulase Negative Staphylococcus (GC 4547),[1],1 µg/mL
same,MIC Coagulase Negative Staphylococcus (GC 4547),[1]; [6],1 µg/mL
same,MIC Coagulase Negative Staphylococcus (GC 4548),[1],<0.5 µg/mL
same,MIC Coagulase Negative Staphylococcus (GC 4548),[1]; [6],<0.5 µg/mL
same,MIC Coagulase Negative Staphylococcus (GC 4549),[1],<0.5 µg/mL
same,MIC Coagulase Negative Staphylococcus (GC 4549),[1]; [6],<0.5 µg/mL
same,MIC Coagulase Negative Staphylococcus (GC 4551),[1],<0.5 µg/mL
same,MIC Coagulase Negative Staphylococcus (GC 4551),[1]; [6],<0.5 µg/mL
same,MIC Coagulase Negative Staphylococcus (GC 6257),[1],<0.5 µg/mL
same,MIC Coagulase Negative Staphylococcus (GC 6257),[1]; [6],<0.5 µg/mL
same,MIC Streptococcus agalactiae (GC 4564),[2],<0.5 µg/mL
same,MIC Streptococcus pneumoniae (GC 1894),[2],<0.5 µg/mL
same,MIC Streptococcus pneumoniae (GC 4565),[2],<0.5 µg/mL
same,MIC Streptococcus pneumonine (ATCC 6301),[2],<0.5 µg/mL
same,MIC Streptococcus pyogenes (GC 4563),[2],<0.5 µg/mL
same,MIC Escherichia coli (ATCC 25922),[3],16 µg/mL
same,MIC Escherichia coli (GC 4559),[3],16 µg/mL
same,MIC Escherichia coli (GC 4560),[3],<0.5 µg/mL
same,MIC Enterococccus avium (GC 4558),[4],1 µg/mL
same,MIC Enterococccus faecalis (ATCC 29212),[4],1 µg/mL
same,MIC Enterococccus faecalis (GC 2691),[4],1 µg/mL
same,MIC Enterococccus faecalis (GC 3059),[4],1 µg/mL
same,MIC Enterococccus faecalis (GC 4552),[4],1 µg/mL
same,MIC Enterococccus faecalis (GC 4553),[4],1 µg/mL
same,MIC Enterococccus faecalis (GC 4554),[4],1 µg/mL
same,MIC Enterococccus faecalis (GC 6189),[4],1 µg/mL
same,MIC Enterococccus faecium (GC 2243),[4],1 µg/mL
same,MIC Enterococccus faecium (GC 4556),[4],1 µg/mL
same,MIC Enterococccus faecium (GC 4557),[4],1 µg/mL
same,MIC Enterococcus faecalis (GC 2242),[4],1 µg/mL
same,"median effective dose (ED50), Staphylococcus aureus-SMITH (GC 4543)",[5],0.06 mg/kg
